Patent US20240424019A1, “SHP1 MODIFIED DENDRITIC CELLS AND EXTRACELLULAR VESICLES DERIVED THEREFROM AND ASSOCIATED METHODS” (BOARD OF REGENTS, THE UNIVERSITY OF TEXAS SYSTEM, priority 2021, published 2024)

What was measured:
B16-FLT3L melanoma = B16-FLT3L melanoma model; format: in vivo, mouse; settings: VitE plus ICT
[1] = target: SHP1 immunoprecipitated from LPS-activated DC2.4 cells (UniProt P29351); test: SHP1 phosphatase assay (EnzChek tyrosine phosphatase kit), dose-response; format: biochemical, mouse; settings: SHP1 from LPS (100 ng/ml)-activated DC2.4 cells; read-out: inhibitory tyrosine phosphatase activity IC50
From the text: FIG. 3A: […] FIG. 3B: t-SNEs by CyTOF and quantification comparing the intensity of […]-SHP1 in TADCs from the vehicle-or VitE-treated EMT6 tumors at day 15 post-implantation. FIG. 3C: Top, SHP1 knockdown in BMDCs was effective. Bottom, CFSE-dilution analysis of OT-1 T cells co-cultured with OVA protein-pulsed BMDCs (ratio 10:1) with knockdown of SHP1 by […]6 versus siCtrl (n=3). Right, quantification of OT-1 T-cell numbers under the indicated condition. FIG. 3D: The binding of VitE to purified SHP1 is analyzed by microscale thermophoresis (MST) binding assay. […] FIG. 3E: Relative tyrosine phosphatase activity of SHP1 immunoprecipitated from LPS (100 ng/ml)-activated DC2.4 cells in the presence of indicated doses of VitE (mean of triplicates). FIG. 3F: SHP1 tyrosine phosphatase activity in LPS (100 ng/ml)-activated BMDCs (n=6) treated with vehicle-or VitE (50 μg/ml). Error bars, s.e.m. ns, no significant. *P<0.05, **P<0.01. ***P<0.001, ****P<0.0001. We assessed the phosphatase activity of SHP1 by using the RediPlate 96 EnzChek Tyrosine Phosphatase Assay Kit (ThermoFisher). […] We placed beads into RediPlate wells and incubated them for 30 min at 25° C. before reading them for fluorescence. […] The inhibitor dose-response curves were analyzed using normalized IC50 regression curve fitting with control-based normalization.

4T1 tumors = test: Orthotopic 4T1 TNBC tumor model; format: in vivo, mouse
Description: FIG. 6A: Diagram of the experimental paradigm (top) and tumor growth curves (bottom) of orthotopic B16-GMCSF tumor in mice vaccinated with or without GVAX (s.c. at day 1, 4, 7), then treated with vehicle or VitE (50 mg/kg/day daily by oral gavage administration from day 4 to day 20) (n=6/group). FIG. 6B: Tumor weight of 4T1 tumors from mice treated with vehicle. GVAX, ICT (200 μg/mouse anti-PDI and 100 μg/mouse anti-CTLA4 by i.p. at day 7, 10, 13), or GVAX+ICT in combination with vehicle or VitE (50 mg/kg/day daily by oral gavage administration from day 4 to day 25) (n=4) at day 25 after tumor inoculation. FIG. 6C: Flow cytometric analysis (left) and quantification (right) of gp70 tetramer+CD8^+ T cells in 4T1 tumors at day 14 post-implantation with indicated treatments (n=5/group). FIG. 6D: Kaplan-Meier survival curve of 4T1 tumor-bearing mice treated with vehicle, low dosage of Doxorubicin (Dox, 5 mg/kg by i.v.). ICT (200 μg/mouse anti-PD1 and 100 μg/mouse anti-CTLA4 by i.p. at day 7, 10, 13). or Dox+ICT along with vehicle or VitE (n=10). FIG. 6E: Measurement of maximal tumor diameter in HY1936 KPC tumor-bearing mice treated with gemcitabine (GEM, 25 mg/kg by i.p.) and ICT (anti-PDI/anti-CTLA4) along with vehicle or VitE (n=5). FIG. 6F: Kaplan-Meier survival curve of HY19636 KPC tumor-bearing mice treated with vehicle, GEM (gemcitabine, 25 mg/kg by i.p.), GEM+ICT (anti-PDI/anti-CTLA4) plus vehicle or VitE (n=6). Error bars, s.e.m. ns, no significant. *P<0.05. ***P<0.001, ****P<0.0001.
Syngeneic orthotopic PDAC tumors were established by surgical implantation.
Control groups received vehicle (PBS) without the active product.
Where indicated, mice were vaccinated subcutaneously on their contralateral flank with either PBS or 1.0×10^6 35 Gy-irradiated GM-CSF-secreting B16 cells or GM-CSF-secreting 4T1 cells (GVAX) on days 1, 4, and 7 post-tumor injections.
For chemo combination treatment, HY19636 KPC tumor-bearing mice were treated with gemcitabine (GEM) at 25 mg/kg body weight by i.p. injection once a week from day 7 and 4T1 TNBC tumor-bearing mice were given with doxorubicin (Dox, 5 mg/kg body weight) by i.v. once a week from day 10. The chemotherapeutic doses and schedules used in this study are below or within the range of the concentrations used in the clinic after converting drug doses between species.

B16-GMCSF melanoma = B16-GMCSF melanoma model; format: in vivo, mouse
[2] = doxorubicin+ICT+VitE vs doxorubicin+ICT

Cc1c(C)c2c(c(C)c1O)CC[C@@](C)(CCC[C@H](C)CCC[C@H](C)CCCC(C)C)O2 [VitE, D-α-Tocopherol]
ICT response (B16-FLT3L melanoma): effectively enhanced their ICT responses
IC50 [1]: 50 to 200 µM
antitumor effect (tumor weight) (4T1 tumors; VitE 50 mg/kg/day combined with GVAX+ICT): significantly enhanced the antitumor effect
gp70 tetramer-specific CD8+ T cells in tumor (4T1 tumors; VitE added to doxorubicin+ICT): increased the infiltration of tumor-infiltrating gp70) tetramer-specific CD8^+ T cells
survival (4T1 tumors; [2]): substantially prolonged the survival
tumor growth and lung metastasis (4T1 tumors; [2]): inhibited tumor growth and lung metastasis
tumor growth (B16-GMCSF melanoma; GVAX+VitE (50 mg/kg/day oral gavage day 4-20)): significant tumor inhibition
tumor-infiltrating GZMB+CD8+ T cells (B16-GMCSF melanoma; GVAX+VitE, day 14 post-implantation): increased tumor-infiltrating cytolytic GZMB CD8^+ T cells
therapeutic response (B16-GMCSF melanoma; VitE 50 mg/kg and ICT (anti-PD1) combo-treatment): significantly improved therapeutic response
